Patent US20020052295A1, “Diacyl derivatives of propylene diamine having herbicidal activity” (priority 1999, published 2002)

How the values were obtained:
[1] = system: SOLNI; assay: Pre-emergence herbicidal activity on SOLNI (black nightshade); format: in vivo, Solanum nigrum; settings: lowest tested rate giving 80% or greater inhibition, approx. 14 days after planting and treating, greenhouse
Outline: (§1)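 Whole-plant pre-emergence assay: compound diluted into 50:50 acetone:water and applied over covered seeds in sterilized soil. Growth at 30/21 °C under mist/subirrigation; inhibition vs untreated at ~14 days, reported as GR80 over rates to typically 1000 g/ha.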

[2] = system: CIRAR; assay: Pre-emergence herbicidal activity on CIRAR (canada thistle, seedling); format: in vivo, Cirsium arvense; settings: lowest tested rate giving 80% or greater inhibition, approx. 14 days after planting and treating, greenhouse
Outline: as §1

[3] = system: ECHCG; assay: Pre-emergence herbicidal activity on ECHCG (barnyardgrass); format: in vivo, Echinochloa crus-galli; settings: lowest tested rate giving 80% or greater inhibition, approx. 14 days after planting and treating, greenhouse
Outline: as §1

[4] = system: PANMI; assay: Pre-emergence herbicidal activity on PANMI (wild proso millet); format: in vivo, Panicum miliaceum; settings: lowest tested rate giving 80% or greater inhibition, approx. 14 days after planting and treating, greenhouse
Outline: as §1

[5] = system: SETFA; assay: Pre-emergence herbicidal activity on SETFA (giant foxtail); format: in vivo, Setaria faberi; settings: lowest tested rate giving 80% or greater inhibition, approx. 14 days after planting and treating, greenhouse
Outline: as §1

[6] = system: BRAPP; assay: Pre-emergence herbicidal activity on BRAPP (broadleaf signalgrass); format: in vivo, Brachiaria platyphylla; settings: lowest tested rate giving 80% or greater inhibition, approx. 14 days after planting and treating, greenhouse
Outline: as §1

[7] = system: DIGSA; assay: Pre-emergence herbicidal activity on DIGSA (large crabgrass); format: in vivo, Digitaria sanguinalis; settings: lowest tested rate giving 80% or greater inhibition, approx. 14 days after planting and treating, greenhouse
Outline: as §1

[8] = system: ABUTH; assay: Post-emergence herbicidal activity on ABUTH (velvetleaf); format: in vivo, Abutilon theophrasti; settings: post-emergence spray; lowest tested rate with 80% or greater inhibition; about 14 days after treatment
From the text: (§2) All such uses, and the biological activity enabling such uses, are embraced by the term “herbicidal” herein. Tables 15 and 16 summarize results of tests conducted as described below to determine the pre-emergence herbicidal activity, in the form of a GR80 value, of illustrative compounds of this invention. […] Where herbicidal activity was evident but 80% inhibition was not achieved at the highest rate tested (typically 1000 g/ha), an asterisk (*) is shown in the following tables. Herbicidal activity evident in the form of symptoms of phytotoxicity, in the absence of at least 80% inhibition at any rate, is indicated in the tables by “phyto”. A blank cell in the following tables indicates no herbicidal or phytotoxic response at any rate tested.
(§3) In another set of tests, the post-emergence activity of compounds of this invention was evaluated on the cool season species listed above. The following procedure was used.
(§4) A pre-prepared topsoil mixture (described above) was placed in a pot and compacted to a depth of 1.0 to 1.25 cm from the top of the pot. Seeds of each of several monocotyledonous and dicotyledonous annual plant species were placed on top of the soil The seeds were covered with a mixture of 50% topsoil and 50% Rediearth™ in sufficient quantity to level-fill the pots. The pots were then placed on a greenhouse bench and subirrigated as needed until plants growing from the seeds had emerged and reached a suitable growth stage for post-emergence treatment, typically 9 to 14 days after planting.
(§5) A known amount of each test compound dissolved or suspended in an appropriate organic solvent was diluted with a 50:50 mix of acetone and water and applied to the plants by spraying with a standard spray nozzle in a spray volume of 3,100 l/ha at a spray pressure of […] (30 psig). Control plants were not sprayed.
(§6) After treatment the plants were placed in a greenhouse with a 30/21° C. day/night temperature regime and were subsequently watered as needed for growth. Approximately 14 days after treatment, the plants were observed and herbicidal efficacy recorded as percent inhibition by comparison with control plants.

[9] = system: SOLNI; assay: Post-emergence herbicidal activity on SOLNI (black nightshade); format: in vivo, Solanum nigrum; settings: post-emergence spray; lowest tested rate with 80% or greater inhibition; about 14 days after treatment
From the text: as §2, §3, §4, §5, §6

[10] = system: AMARE; assay: Post-emergence herbicidal activity on AMARE (redroot pigweed); format: in vivo, Amaranthus retroflexus; settings: post-emergence spray; lowest tested rate with 80% or greater inhibition; about 14 days after treatment
From the text: as §2, §3, §4, §5, §6

[11] = system: DATST; assay: Post-emergence herbicidal activity on DATST (jimsonweed); format: in vivo, Datura stramonium; settings: post-emergence spray; lowest tested rate with 80% or greater inhibition; about 14 days after treatment
From the text: as §2, §3, §4, §5, §6

[12] = system: CHEAL; assay: Post-emergence herbicidal activity on CHEAL (common lambsquarters); format: in vivo, Chenopodium album; settings: post-emergence spray; lowest tested rate with 80% or greater inhibition; about 14 days after treatment
From the text: as §2, §3, §4, §5, §6

[13] = system: CONAR; assay: Post-emergence herbicidal activity on CONAR (field bindweed); format: in vivo, Convolvulus arvensis; settings: post-emergence spray; lowest tested rate with 80% or greater inhibition; about 14 days after treatment
From the text: as §2, §3, §4, §5, §6

[14] = system: POROL; assay: Post-emergence herbicidal activity on POROL (common purslane; table head prints PORAL); format: in vivo, Portulaca oleracea; settings: post-emergence spray; lowest tested rate with 80% or greater inhibition; about 14 days after treatment
From the text: as §2, §3, §4, §5, §6

[15] = system: ECHCG; assay: Post-emergence herbicidal activity on ECHCG (barnyardgrass); format: in vivo, Echinochloa crus-galli; settings: post-emergence spray; lowest tested rate with 80% or greater inhibition; about 14 days after treatment
From the text: as §2, §3, §4, §5, §6

[16] = system: PANMI; assay: Post-emergence herbicidal activity on PANMI (wild proso millet); format: in vivo, Panicum miliaceum; settings: post-emergence spray; lowest tested rate with 80% or greater inhibition; about 14 days after treatment
[17] = system: SORHA; assay: Post-emergence herbicidal activity on SORHA (johnsongrass, seedling); format: in vivo, Sorghum halepense; settings: post-emergence spray; lowest tested rate with 80% or greater inhibition; about 14 days after treatment
From the text: as §2, §3, §4, §5, §6

[18] = system: SETFA; assay: Post-emergence herbicidal activity on SETFA (giant foxtail); format: in vivo, Setaria faberi; settings: post-emergence spray; lowest tested rate with 80% or greater inhibition; about 14 days after treatment
From the text: as §2, §3, §4, §5, §6

[19] = system: PANDI; assay: Post-emergence herbicidal activity on PANDI (fall panicum); format: in vivo, Panicum dichotomiflorum; settings: post-emergence spray; lowest tested rate with 80% or greater inhibition; about 14 days after treatment
From the text: as §2, §3, §4, §5, §6

[20] = system: SORVU; assay: Post-emergence herbicidal activity on SORVU (shattercane); format: in vivo, Sorghum vulgare; settings: post-emergence spray; lowest tested rate with 80% or greater inhibition; about 14 days after treatment
From the text: as §2, §3, §4, §5, §6

[21] = system: BRAPP; assay: Post-emergence herbicidal activity on BRAPP (broadleaf signalgrass); format: in vivo, Brachiaria platyphylla; settings: post-emergence spray; lowest tested rate with 80% or greater inhibition; about 14 days after treatment
From the text: as §2, §3, §4, §5, §6

[22] = system: DIGSA; assay: Post-emergence herbicidal activity on DIGSA (large crabgrass); format: in vivo, Digitaria sanguinalis; settings: post-emergence spray; lowest tested rate with 80% or greater inhibition; about 14 days after treatment
[23] = system: CIRAR; assay: Post-emergence herbicidal activity on CIRAR (canada thistle, seedling); format: in vivo, Cirsium arvense; settings: post-emergence spray; lowest tested rate with 80% or greater inhibition; about 14 days after treatment
From the text: as §2, §3, §4, §5, §6

[24] = system: ABUTH; assay: Pre-emergence herbicidal activity on ABUTH (velvetleaf); format: in vivo, Abutilon theophrasti; settings: lowest tested rate giving 80% or greater inhibition, approx. 14 days after planting and treating, greenhouse
Outline: as §1

[25] = system: AMARE; assay: Pre-emergence herbicidal activity on AMARE (redroot pigweed); format: in vivo, Amaranthus retroflexus; settings: lowest tested rate giving 80% or greater inhibition, approx. 14 days after planting and treating, greenhouse
Outline: as §1

[26] = system: DATST; assay: Pre-emergence herbicidal activity on DATST (jimsonweed); format: in vivo, Datura stramonium; settings: lowest tested rate giving 80% or greater inhibition, approx. 14 days after planting and treating, greenhouse
Outline: as §1

[27] = system: CHEAL; assay: Pre-emergence herbicidal activity on CHEAL (common lambsquarters); format: in vivo, Chenopodium album; settings: lowest tested rate giving 80% or greater inhibition, approx. 14 days after planting and treating, greenhouse
Outline: as §1

[28] = system: CONAR; assay: Pre-emergence herbicidal activity on CONAR (field bindweed); format: in vivo, Convolvulus arvensis; settings: lowest tested rate giving 80% or greater inhibition, approx. 14 days after planting and treating, greenhouse
Outline: as §1

[29] = system: POROL; assay: Pre-emergence herbicidal activity on POROL (common purslane); format: in vivo, Portulaca oleracea; settings: lowest tested rate giving 80% or greater inhibition, approx. 14 days after planting and treating, greenhouse
Outline: as §1

[30] = system: SORHA; assay: Pre-emergence herbicidal activity on SORHA (johnsongrass, seedling); format: in vivo, Sorghum halepense; settings: lowest tested rate giving 80% or greater inhibition, approx. 14 days after planting and treating, greenhouse
Outline: as §1

[31] = system: PANDI; assay: Pre-emergence herbicidal activity on PANDI (fall panicum); format: in vivo, Panicum dichotomiflorum; settings: lowest tested rate giving 80% or greater inhibition, approx. 14 days after planting and treating, greenhouse
Outline: as §1

[32] = system: SORVU; assay: Pre-emergence herbicidal activity on SORVU (shattercane); format: in vivo, Sorghum vulgare; settings: lowest tested rate giving 80% or greater inhibition, approx. 14 days after planting and treating, greenhouse
Outline: as §1

SMILES | Pre-emergence activity (GR80) on SOLNI [1] | Pre-emergence activity (GR80) on CIRAR [2] | Pre-emergence activity (GR80) on ECHCG [3] | Pre-emergence activity (GR80) on SETFA [5] | Pre-emergence activity (GR80) on BRAPP [6] | Post-emergence activity (GR80) ABUTH [8] | Post-emergence activity (GR80) SOLNI [9] | Post-emergence activity (GR80) AMARE [10] | Post-emergence activity (GR80) DATST [11] | Post-emergence activity (GR80) CHEAL [12] | Post-emergence activity (GR80) CONAR [13] | Post-emergence activity (GR80) PORAL [14] | Post-emergence activity (GR80) ECHCG [15] | Post-emergence activity (GR80) PANMI [16] | Post-emergence activity (GR80) SORHA [17] | Post-emergence activity (GR80) SETFA [18] | Post-emergence activity (GR80) PANDI [19] | Post-emergence activity (GR80) SORVU [20] | Post-emergence activity (GR80) BRAPP [21] | Post-emergence activity (GR80) DIGSA [22] | also measured
C=C(C)CSc1ccccc1C(=O)NC(C)CNC(=O)c1cccc(C(F)(F)F)c1 (centres unmarked) [Example 124] | phyto | 1000 g/ha | phyto | phyto | phyto | phyto | phyto | phyto | phyto | [empty] | phyto | phyto | [empty] | [empty] | [empty] | [empty] | [empty] | [empty] | [empty] | [empty] | Pre-emergence activity (GR80) on PANMI [4]: phyto; Pre-emergence activity (GR80) on DIGSA [7]: 1000 g/ha
O=C(NCC(CO)NC(=O)c1cccc(C(F)(F)F)c1)c1cccc(C(F)(F)F)c1 (centres unmarked) [Example 11, N,N′-(3-hydroxy-1,2-propanediylbis)-3-(trifluoromethyl)benzamide] | – | – | – | – | – | [empty] | [empty] | phyto | phyto | [empty] | – | [empty] | [empty] | [empty] | [empty] | – | [empty] | [empty] | [empty] | [empty] | Post-emergence activity (GR80) CIRAR [23]: [empty]
CCSc1ncccc1C(=O)NC(C)CNC(=O)c1cccc(C(F)(F)F)c1 (centres unmarked) [Example 243, 2-ethylthio-N-[1-methyl-2-(3-trifluoromethyl)phenylcarbonylamino]ethyl-3-pyridinecarboxamide] | 250 g/ha | 250 g/ha | 1000 g/ha | 500 g/ha | 500 g/ha | phyto | phyto | phyto | 750 g/ha | phyto | * (Where herbicidal activity was evident but 80% inhibition was not achieved at the highest rate tested (typically 1000 g/ha), an asterisk (*) is shown) | * (Where herbicidal activity was evident but 80% inhibition was not achieved at the highest rate tested (typically 1000 g/ha), an asterisk (*) is shown) | [empty] | [empty] | [empty] | [empty] | [empty] | [empty] | [empty] | [empty] | Pre-emergence activity (GR80) on ABUTH [24]: 500 g/ha; Pre-emergence activity (GR80) on AMARE [25]: 750 g/ha; Pre-emergence activity (GR80) on DATST [26]: 250 g/ha; Pre-emergence activity (GR80) on CHEAL [27]: 250 g/ha; Pre-emergence activity (GR80) on CONAR [28]: 250 g/ha; Pre-emergence activity (GR80) on PORAL [29]: 250 g/ha; Pre-emergence activity (GR80) on PANMI [4]: 750 g/ha; Pre-emergence activity (GR80) on SORHA [30]: * (Where herbicidal activity was evident but 80% inhibition was not achieved at the highest rate tested (typically 1000 g/ha), an asterisk (*) is shown); Pre-emergence activity (GR80) on PANDI [31]: 500 g/ha; Pre-emergence activity (GR80) on SORVU [32]: phyto; Pre-emergence activity (GR80) on DIGSA [7]: 500 g/ha
CC(CNC(=O)c1cccc(C(F)(F)F)c1)NC(=O)c1ccccc1SCCCCl (centres unmarked) [Example 119] | 1000 g/ha | – | – | phyto | phyto | phyto | phyto | phyto | phyto | [empty] | phyto | phyto | [empty] | [empty] | [empty] | [empty] | [empty] | [empty] | [empty] | [empty] | Pre-emergence activity (GR80) on ABUTH [24]: phyto; Pre-emergence activity (GR80) on SORHA [30]: phyto
CC(CNC(=O)c1cccc(C(F)(F)F)c1)NC(=O)c1ccc(C(F)(F)F)c(F)c1 (centres unmarked) [Example 24] | – | – | – | – | – | – | – | – | – | – | – | – | phyto | phyto | [empty] | [empty] | phyto | phyto | phyto | phyto | –
